# Read-outs that look alike come from different tables or passages of the source.
# Legend:
# [1] = target: histone deacetylase (HeLa nuclear extracts); experiment: In vitro assay for inhibition of histone deacetylase with [3H]-labelled substrate (C.1.a); format: biochemical; conditions: [3H]-acetylated histone H4 peptide substrate
# Description: As a substrate for measuring HDAC activity a synthetic peptide, i.e. the amino acids 14-21 of histone H4, was used. The substrate is biotinylated at the NH2-terminal part with a 6-aminohexanoic acid spacer, and is protected at the COOH-terminal part by an amide group and specifically [^3H]acetylated at lysine 16. The substrate, biotin-(6-aminohexanoic)Gly-Ala-([^3H]-acetyl-Lys-Arg-His-Arg-Lys-Val-NH2), was added in a buffer containing 25 mM Hepes, 1 M sucrose, 0.1 mg/ml BSA and 0.01% Triton X-100 at pH 7.4. After 30 min the deacetylation reaction was terminated by the addition of HCl and acetic acid. (final concentration 0.035 mM and 3.8 mM respectively). After stopping the reaction, the free ^3H-acetate was extracted with ethylacetate. After mixing and centrifugation, the radioactivity in an aliquot of the upper (organic) phase was counted in a β-counter.
# For each experiment, controls (containing HeLa nuclear extract and DMSO without compound), a blank incubation (containing DMSO but no HeLa nuclear extract or compound) and samples (containing compound dissolved in DMSO and HeLa nuclear extract) were run in parallel. In first instance, compounds were tested at a concentration of 10^−5M. […] In each test the blank value was subtracted from both the control and the sample values. The control sample represented 100% of substrate deactylation. For each sample the radioactivity was expressed as a percentage of the mean value of the controls. […] Herein the effects of test compounds are expressed as pIC50 (the negative log value of the IC50-value) (see Table F-3).
# [2] = system: A2780 ovarian carcinoma cells; experiment: Antiproliferative activity on A2780 cells, MTT (C.2); format: cell-based; conditions: Homo sapiens, 96 h, four days of incubation, read-out: Cellular activity pIC50 C.2 (converted)
# Description: All compounds tested were dissolved in DMSO and further dilutions were made in culture medium. Final DMSO concentrations never exceeded 0.1% (v/v) in cell proliferation assays. Controls contained A2780 cells and DMSO without compound and blanks contained DMSO but no cells. MTT was dissolved at 5 mg/ml in PBS. A glycine buffer comprised of 0.1 M glycine and 0.1 M NaCl buffered to pH 10.5 with NaOH (1N) was prepared (all reagents were from Merck).
# The human A2780 ovarian carcinoma cells (a kind gift from Dr. T. C. Hamilton [Fox Chase Cancer Centre, Pennsylvania, USA]) were cultured in RPMI 1640 medium supplemented with 2 mM L-glutamine, 50 μg/ml gentamicin and 10% fetal calf serum. Cells were routinely kept as monolayer cultures at 37° C. in a humidified 5% CO2 atmosphere. Cells were passaged once a week using a trypsin/EDTA solution at a split ratio of 1:40. All media and supplements were obtained from Life Technologies. Cells were free of mycoplasma contamination as determined using the Gen-Probe Mycoplasma Tissue Culture kit (supplier: BioMerieux).
# Cells were seeded in NUNC™ 96-well culture plates (Supplier: Life Technologies) and allowed to adhere to the plastic overnight. Densities used for plating were 1500 cells per well in a total volume of 200 μl medium. After cell adhesion to the plates, medium was changed and drugs and/or solvents were added to a final volume of 200 μl. Following four days of incubation, medium was replaced by 200 μl fresh medium and cell density and viability was assessed using an MTT-based assay. To each well, 25 μl MTT solution was added and the cells were further incubated for 2 hours at 37° C. The medium was then carefully aspirated and the blue MTT-formazan product was solubilized by addition of 25 μl glycine buffer followed by 100 μl of DMSO. […] Within an experiment, the results for each experimental condition are the mean of 3 replicate wells. For initial screening purposes, compounds were tested at a single fixed concentration of 10^−6 M. For active compounds, the experiments were repeated to establish full concentration-response curves. For each experiment, controls (containing no drug) and a blank incubation (containing no cells or drugs) were run in parallel. The blank value was subtracted from all control and sample values. For each sample, the mean value for cell growth (in absorbance units) was expressed as a percentage of the mean value for cell growth of the control. […] Herein the effects of test compounds are expressed as pIC50 (the negative log value of the IC50-value)(see Table F-3).
# [3] = Solubility/stability at different pH's, chemiluminescent nitrogen detector (C.3.b); format: physicochemical; conditions: aqueous buffer; pH = 2.3
# Source text: In a second method the solubility of a compound at different pH's can be measured with the use of a Chemiluminescent Nitrogen Detector (see example C.3.b).
# The solubility of a compound, at different pH's, can also be measured with the use of a chemiluminescent nitrogen detector. (see Table F-3).
# [4] = Metabolic stability with rat hepatocytes cell culture (C.5.b); format: in vitro ADME; conditions: 5 μM
# Description: Rat hepatocytes were isolated from male Sprague Dowley rats. The compounds were dissolved to a 5 mM stock solution in 100% DMSO and incubated at a final concentration of 5 μM for 0, 15, 30, 60 and 120 min with rat hepatocyte cell cultures (0.5 million viable cells/0.5 ml) using 24-well plates.
# Samples were prepared for LC-MS by addition of two volumes of DMSO. The samples were thoroughly shaken and subsequently centrifuged at 900 g for 10 min (room temperature). All experiments were performed in triplicate. Of the resulting supernatant 50 μl was analysed by LC-MS.
# For LC-MS, elution of samples was performed on a Hypersil BDS C18 column (50×4.6 mm, 5 μm, Thermohypersil, UK). The HPLC system comprised a Surveyor delivery system (Surveyor Inc., San Jose, US) equipped with a Surveyor autosampler device. Elution was with buffer A (10 mM ammoniumacetate (pH 6.9) in H2O/Acetonitrile (95:5)) and solvent B (acetonitrile) at a flow rate of 1.2 ml/min. The gradient employed was 0.5 min solvent A as start condition followed by increasing the organic phase concentration from 0% B till 95% B over 2 min in a linear fashion. This phase was kept stationary for a further 2 min and reduced again to 0% B within 0.5 min.
# Total injection volume of samples was 50 μL. Column oven temperature was kept at 40° C. The LC flow was splitted for MS detection and 0.1 ml let into the source. An triple quadrupol mass spectrometer TSQ Quantum (Thermofinnigan, LaJolla, USA) mass spectrometer fitted with an ESI source was used for detection. Source voltage was set at 3800 volt, the capillary temperature at 300° C. The mass spectrometer was operated in positive ion mode in SIM adjusted to the mass of M+H with a scan width of 1 Da for quantification purposes. Instrument control, data acquisition and processing were performed using the Xcalibur software (ThermoFinnigan, San Jose, Calif., U.S.A). The metabolic stability of compounds in rat hepatocytes was expressed as in vitro half-lives.
# [5] = system: p21 promoter reporter A2780 tumour in nude mice; experiment: p21 promoter induction, in vivo method, tumour fluorescence (C.6.c); conditions: 20-40 mpk orally or intravenously daily during 6 days, ranked inactive, weaker, identical or better than R306465
# Description: Another method tests the capacity of compounds to induce p21 as the consequence of HDAC inhibition at the cellular level. […] The reporter gene is a fluorescent protein and the expression of the reporter gene is measured as the amount of fluorescent light emitted (see example C.6.b.). The last method is an in vivo method wherein mice are used for screening the pharmaceutical activity of a compound. The above described stably transformed tumour cells can be administered to mice in an amount sufficient to effect production of a tumour. After the tumour cells had sufficient time to form a tumour, a potentially active compound can be administered to the animals and the effect of said compound on the tumour cells is evaluated by measuring the expression of the reporter gene. Incubation with pharmaceutical active compounds will result in an increase of reporter gene expression compared to the control levels (see example C.6.c.)
# A selected clone was injected subcutaneous (10^7 cells/200 μl) into the flank of nude mice and a calliper measurable tumour was obtained after 12 days. […] Tumours were evaluated for fluorescence by the in-house developed Automated Whole Body Imaging System (Fluorescent stereomicroscope type Olympus® SZX12 equipped with a GFP filter and coupled to a CCD camera type JAI® CV-M90 controlled by a software package based on the IMAQ Vision Software from National Instruments®). […]
smiles,measurement,setting,value
CCCO [propanol],% metabolism,"15 min incubation with microsomes, compound 5 μM",25%
COc1cc(N)c(Cl)cc1C(=O)NC1CCN(CCCOc2ccc(F)cc2)CC1OC (stereo not drawn) [Cisapride],% metabolism,"human, 15 min, 5 μM",45%
O=C(NO)c1cnc(N2CCC(CNCCc3c[nH]c4ccccc34)CC2)nc1 [Compound 5],Enzymatic activity pIC50 C.1.a.,[1],8.6
same,IC50,[2],316 nM
same,solubility,[3],2000 µg/mL
same,in vitro half-live,[4],60 min
Cn1cc(CNCC2CCN(c3ncc(C(=O)NO)cn3)CC2)c2ccccc21 [Compound 1],in vitro half-live,[4],81 min
same,tumour fluorescence ranking versus R306465,[5],better than R306465
"O=C(NO)c1cnc(N2CCN(S(=O)(=O)c3ccc4ccccc4c3)CC2)nc1 [Compound R306465, reference compound]",in vitro half-live,[4],8 min

# Reference: patent US9150543B2, “Substituted indolyl alkyl amino derivatives as inhibitors of histone deacetylase” (Janssen Pharmaceutica N. V., priority 2004, dated 2015)
